This note sets out measurements from the NIST ThermoML archive (doi:10.1016/j.fluid.2012.11.008).

The data set is described as follows: refractive index (Na D-line) (dimensionless). The note with it: 293.15 K; 101.33 kPa; Liquid; Standard Abbe refractometry.

Numbers after ± are expanded uncertainties.

`CC#N` [acetonitrile]: the refractive index (commonly the speed of light in vacuum divided by its phase velocity in the sample) was 1.3439 ± 0.0007. The same measure for `CCC=C(C)C` [2-methyl-2-pentene]: 1.4003 ± 0.0008. In the case of `CCCCCC` [hexane], the refractive index was determined as 1.3752 ± 0.0007. The same measure for `CO` [methanol]: 1.3287 ± 0.0007; for `CCC(C)(C)OC` [2-methoxy-2-methylbutane]: 1.3886 ± 0.0009; for `CCO` [ethanol]: 1.3618 ± 0.0007. With `CCOC(C)=O` [ethyl acetate] the figure was 1.3724 ± 0.0007; with `CCCCCCC` [heptane], 1.3878 ± 0.0007. The same measure for `COC(C)(C)C` [2-methoxy-2-methylpropane]: 1.3689 ± 0.0007.
